Assays:
CCD13Lu cells = test: MTT assay for cell proliferation / mafosfamide sensitivity, CCD13Lu; assay type: cell-based; settings: 10 μM compound + mafosfamide, FIG. 13c
SF767 cells = test: MTT assay for cell proliferation / mafosfamide sensitivity, SF767; assay type: cell-based; settings: 10 μM inhibitor + mafosfamide

Cc1ccc(S(=O)(=O)n2c(C)nc3ccccc32)cc1 [Compound A10]
effect with mafosfamide (in words), CCD13Lu (CCD13Lu cells): decreased cell proliferation
chemosensitivity to mafosfamide (in words), SF767 (SF767 cells): significantly increased chemosensitivity
